Activity calls are given as the source filed them. No cut-off for these calls is given here.
Tests used:
[1] = target: Autotaxin (Homo sapiens, UniProt Q13822); assay: Inhibition of human ATX using FS-3 as substrate preincubated for 45 mins followed by substrate addition and measured every 1 min for 30 mins by fluorescence microplate reader assay
[2] = system: Mus musculus; assay: Antifibrotic activity in C57BL/6J mouse model of bleomycin-induced idiopathic pulmonary fibrosis assessed as inhibition of changes in lung textures at 30-60 mg/kg, po dosed for 31 consecutive days followed by tracheal administration of bleomycin by masson's staining based histopathological analysis; type: functional, organism-based; conditions: time 31.0 day
[3] = system: Mus musculus; assay: Antifibrotic activity in C57BL/6 mouse model of bleomycin-induced idiopathic pulmonary fibrosis assessed as inhibition of collagen deposition at 30-60 mg/kg, po dosed for 31 consecutive days followed by tracheal administration of bleomycin by masson's staining based histopathological analysis; type: functional, organism-based; conditions: time 31.0 day
[4] = system: Mus musculus; assay: Antifibrotic activity in C57BL/6 mouse model of bleomycin-induced idiopathic pulmonary fibrosis assessed as survival rate at 30-60 mg/kg, po dosed for 31 consecutive days followed by tracheal administration of bleomycin relative to control; type: functional; conditions: C57BL/6, po, 744 h, time 31 day

Compound	IC50 [1] [nM]	further results
CCc1nc2c(C)cc(-c3ccc(C(=O)N4CCN(CC)CC4)cc3)cn2c1NC(=O)NCc1ccc(F)cc1	> 1000	
CCc1nc2c(C)cc(-c3ccc(CN4CCC(O)CC4)cc3)cn2c1NC(=O)NCc1ccc(F)cc1	1.72	inhibition [2]: Active; inhibition [3]: Active; survival at 60 mg/kg [4]: 100%
CCc1nc2c(C)cc(-c3ccc(C(=O)N4CCC(O)CC4)cc3)cn2c1NC(=O)NCc1ccc(F)cc1	9.17	
CCc1nc2c(C)cc(-c3ccc(CN4CCCCC4)cc3)cn2c1NC(=O)NCc1ccc(Cl)cc1	647	
CCc1nc2c(C)cc(-c3ccc(C(=O)N4CCN(C)CC4)cc3)cn2c1NC(=O)NCc1ccc(OC)c(Cl)c1	213	
CCc1nc2c(C)cc(-c3ccc(CN4CCC(O)CC4)cc3)cn2c1NC(=O)NCc1ccc(Cl)cc1	237	
CCc1nc2c(C)cc(-c3ccc(C(=O)N4CCCCC4)cc3)cn2c1NC(=O)NCc1ccc(F)cc1	626	
CCc1nc2c(C)cc(-c3ccc(CN4CCCC4)cc3)cn2c1NC(=O)NCc1ccc(Cl)cc1	1070	
CCc1nc2c(C)cc(-c3ccc(CN4CCOCC4)cc3)cn2c1NC(=O)NCc1ccc(Cl)cc1	283	
CCc1nc2c(C)cc(-c3ccc(CN4CCC(O)CC4)cc3)cn2c1NC(=O)NCc1ccc(OC)c(Cl)c1	7.41	
CCc1nc2c(C)cc(-c3ccc(CN4CCN(C)CC4)cc3)cn2c1NC(=O)NCc1ccc(F)cc1	451	
CCc1nc2c(C)cc(-c3ccc(CN4CCOCC4)cc3)cn2c1NC(=O)NCc1ccc(OC)c(Cl)c1	71.7	
COc1ccc(CNC(=O)Nc2c(C)nc3c(C)cc(-c4ccc(CN5CCN(CCO)CC5)cc4)cn23)cc1Cl	79.1	
CCc1nc2c(C)cc(-c3ccc(CN4CCC[C@H]4CO)cc3)cn2c1NC(=O)NCc1ccc(OC)c(Cl)c1	497	
CCc1nc2c(C)cc(-c3ccc(C(=O)N4CCN(C)CC4)cc3)cn2c1NC(=O)NCc1ccc(F)cc1	257	
CCc1nc2c(C)cc(-c3ccc(CN4CCN(CC)CC4)cc3)cn2c1NC(=O)NCc1ccc(Cl)cc1	688	
COc1ccc(CNC(=O)Nc2c(C)nc3c(C)cc(-c4ccc(CN5CCC(O)CC5)cc4)cn23)cc1Cl	11	
CCc1nc2c(C)cc(-c3ccc(C(=O)N4CCC(O)CC4)cc3)cn2c1NC(=O)NCc1ccc(OC)c(Cl)c1	11.7	
CCc1nc2c(C)cc(N3CCN(CC(=O)N4CC(O)C4)CC3)cn2c1N(C)c1nc(-c2ccc(F)cc2)c(C#N)s1		inhibition [2]: Active; inhibition [3]: Active
CCc1nc2c(C)cc(-c3ccc(CN4CCN(CCO)CC4)cc3)cn2c1NC(=O)NCc1ccc(OC)c(Cl)c1	5.43	
CCc1nc2c(C)cc(-c3ccc(CN4CCSCC4)cc3)cn2c1NC(=O)NCc1ccc(OC)c(Cl)c1	> 1000	

Reference: ChEMBL document CHEMBL4808244, “Design, synthesis and anti-fibrosis evaluation of imidazo[1,2-a]pyridine derivatives as potent ATX inhibitors” (Bioorg Med Chem, 2021)
